Reference: US8951563B2, “Antibiotic drug delivery and potentiation” (Technion Research & Development Foundation Limited, priority 2009, dated 2015)
Converted amounts (≈) assume the structure as drawn.

How the values were obtained:
A. aureus = type: cell-based
Method: (§1) All bacteria were cultured in Luria-Bertani (LB) medium (10 g/l tryptone, 5 g/l yeast extract, 5 g/l NaCl, pH 7.4).
(§2) Bacteria were grown overnight in LB growth medium and diluted 10,000-fold in same medium.
(§3) Inhibition of proliferation was determined by optical density measurements (620 nm) after incubation overnight at 37° C.

E. coli = type: cell-based
Method: as §1, §2, §3

[1] = system: four MDR clinical isolates of E. coli; type: cell-based
Method: as §2, §3

E. coli AG100 [2] = assay: Ethidium bromide (EtBr) uptake assay; type: cell-based; details: bacteria in PBS, FIG. 2A
Method: Cells were grown overnight in LB broth at 37° C. to an optical density of 1 (620 nm), washed twice in 200 μl PBS, and resuspended in the same buffer containing 0.5% glucose. […] Fluorescence was recorded by a BioTeK synergy HT Microplate Reader (excitation, 530 nm; emission, 645 nm).
Ethidium bromide is known for its ability to spontaneously translocate across bacterial membranes and interact with nucleic acids, as can be evidenced by the increase in fluorescence signal.

E. coli AG100 [3] = assay: Bactericidal kinetics (time-kill); type: cell-based; details: sub-MIC concentrations, FIG. 2B
Method: Bacteria were sampled at various time intervals, subjected to serial 10-fold dilutions, and plated onto LB-agar. Cell counts were determined using the drop plate method. Plates were incubated overnight at 37° C. and colonies were counted.

[4] = Encapsulation efficiency, liposome versus cochleate (MIC and fluorescamine methods); type: physicochemical
[5] = Cochleate formation by light microscopy; type: physicochemical; parameters: key: or above (E!); excellent (E); good (G); poor (P); none (N)
Method: Lipid films containing binary mixtures of lipids were made from aliquots of stock solutions in chloroform:methanol (2:1). The solvent was evaporated with a stream of nitrogen gas and the lipids deposited as a film on the walls of a glass tube. The tubes were then placed in a vacuum dessicator for 3 hours. The films were kept under Argon at −20° C. The lipid films were hydrated with buffer solutions of OAK polymers with extensive vortexing, so as to have a lipid to polymer molar ratio of […].
Hydrated films were subjected to freeze thawing three times before imaging, to ensure proper equilibration of OAK with the multilamellar vesicles. A drop of this mixture was placed on a glass slide and covered with a glass coverslip. Light microscopy was carried out at room temperature using a Zeiss Axiovert 100M microscope with a Plan-Neofluar 100×/1.3 oil immersion objective. Images were analyzed with the Zeiss LSM image browser v2.8.
The morphology of the samples of different OAKs and different lipid mixtures could be classified into the following categories.
Table 5 presents the results of cochleate formation with different lipid mixtures of 1:10 lipid to polymer ratio, and a series of OAK polymers, indicated by their alternative denotations and SED ID Nos in parentheses. “Tm” denotes the melting temperature of the lipid bilayer afforded by the given lipid mixture. Some selected samples were further analyzed to confirm the results with freeze fracture electron microscopy for, as indicated in Table 5. Cochleate formation is defined as excellent (E) or above (E!), good (G), poor (P), or none (N) based on the aforementioned comparison, as well as on the abundance of cochleate structures observed in the light microscopy images. Lipid mixtures having a number in parenthesis are samples for which freeze-fracture electron microscopy analysis was conducted. Lipid mixtures having a “+” sign next to the number in parenthesis are samples which were confirmed by freeze-fracture electron microscopy as forming large cochleates with few vesicles and no inverted micellar (HII) morphology (samples 2, 3 and 5), or smaller cochleate structures mixed with other morphologies (samples 0 and 4). Lipid mixtures which contain only anionic lipids are marked with “^A”. Sample 0 is the lipid/OAK system used and presented in Example 1 hereinabove.

[6] = Molecular charge and RP-HPLC hydrophobicity of polymers; type: physicochemical; details: HPLC-RP gradient mobile phase
Text: Briefly, the polymers were synthesized while applying the Fmoc active ester chemistry on a fully automated, programmable peptide synthesizer (Applied Biosystems 433A). After cleavage from the resin, the crude product was extracted with 30% acetonitrile in water and purified by RP-HPLC (Alliance Waters), so as to obtain a chromatographic homogeneity higher than 95%. HPLC runs were typically performed on C18 columns (Vydac, 250 mm×4.6 or 10 mm) using a linear gradient of acetonitrile in water (1% per minute), both solvents containing 0.1% trifluoroacetic acid. The purified polymers were subjected to mass spectrometry (ZQ Waters) and NMR analyses to confirm their composition, and stored as a lyophilized powder at −20° C. Prior to being tested, fresh solutions were prepared in water, vortexed, sonicated, centrifuged and then diluted in the appropriate medium.
“Q” represents the overall molecular charge at physiological pH; “ACN (%)” represents the percent of acetonitrile in the HPLC-RP gradient mobile phase at which the polymer was eluted and which corresponds to the estimated hydrophobicity of the polymer. The column headed by “Ref.” indicates prior reference of the OAK if present, wherein a number in parentheses “(##)” corresponds to the SEQ ID NO in U.S. Pat. No. 7,504,381; the letter “R” indicates a polymer published in Radzishevsky I. S. et al. (2008), Chem. Biol., 15(4), pp. 354-362; and “New” indicates a novel polymer disclosed herein.

[7] = Maximal tolerated dose (MTD), single IV injection; details: mice, free OAK
[8] = Freeze fracture electron microscopy of cochleates
[9] = system: Klebsiella pneumoniae CI 1286; assay: Whole blood assay (stability and drug release); type: cell-based; details: whole human blood, 37° C., 4 and 40 multiples of the MIC, FIG. 4D
Method: Stability and drug release rates were assessed using the human blood-resistant Klebsiella pneumoniae CI 1286. […] After the specified incubation periods (37° C.), aliquots were plated on LB agar as described above (Antibacterial assays) for CFU count.
The stability of OAK-cochleate and OAK-liposome preparations in whole blood was compared by assessing antibacterial activity against the blood-resistant strain of Klebsiella pneumonia.

For `CCCCCCCCCCCC(=O)NC(CCCCN)C(=O)NCCCCCCCC(=O)NC(CCCCN)C(=O)NCCCCCCCC(=O)NC(CCCCN)C(=O)NCCCCCCCC(=O)NC(CCCCN)C(=O)NCCCCCCCC(=O)NC(CCCCN)C(=O)NCCCCCCCC(=O)NC(CCCCN)C(=O)NCCCCCCCC(=O)NC(CCCCN)C(=O)NCCCCCCCC(=O)NC(CCCCN)C(N)=O` (stereo not drawn) [C12K-7α8, C12K(NC8K)7NH2], the “MIC A. aureus” value (A. aureus) was 50 µM (≈ 111 µg/mL), the “MIC E. coli” value (E. coli) was 3.1 µM (≈ 6.86 µg/mL) and the “OAK MIC” value [1] was 6.9 µg/mL. For the same compound, the “EtBr uptake (intracellular accumulation)” value (E. coli AG100 [2]) was “enhanced in a dose-dependent manner”, the “time-kill, OAK alone” value (E. coli AG100 [3]) was “significant bactericidal activity at sub-MIC concentrations” and the “OAK encapsulation efficiency in cochleates (OAK bound)” value ([4]; cochleates (POPE:TOCL)) was greater than 80%. The “OAK encapsulation efficiency in liposomes” value ([4]; liposomes (PC:PEG2000)) was less than 20%, the Cochleate formation ([5]; DMPC:TOCL 75:25, 1:10 lipid to polymer ratio) was “N” and the Cochleate formation ([5]; DMPE:DOPG 75:25, 1:10 lipid to polymer ratio) was “E”. The Cochleate formation ([5]; DMPE:TOCL 75:25, 1:10 lipid to polymer ratio) was “E”, the Cochleate formation ([5]; DMPG:TOCL 75:25 (anionic lipids only), 1:10 lipid to polymer ratio) was “N” and the Cochleate formation ([5]; DOPE:TOCL 75:25, 1:10 lipid to polymer ratio) was “P”. The Cochleate formation ([5]; DPPE:TOCL 75:25, 1:10 lipid to polymer ratio) was “E”, the Cochleate formation ([5]; POPC:TOCL 75:25, 1:10 lipid to polymer ratio) was “P” and the Cochleate formation ([5]; POPE:DOPG 75:25, 1:10 lipid to polymer ratio) was “N”. For the same compound, the Cochleate formation ([5]; POPE:DOPG:TOCL 80:15:5, 1:10 lipid to polymer ratio) was “N”, the Cochleate formation ([5]; POPE:TOCL 50:50, lipid to polymer 10:1) was “poor cochleate former” and the Cochleate formation ([5]; POPE:TOCL 75:25, 1:10 lipid to polymer ratio) was “G”. For the same compound, the Cochleate formation ([5]; POPG:TOCL 75:25 (anionic lipids only), 1:10 lipid to polymer ratio) was “G”, the Cochleate formation ([5]; TOCL alone, lipid to polymer 10:1) was “abundance of smaller liposomes” and the “ACN (%) (percent acetonitrile at elution, estimated hydrophobicity)” value [6] was 47.5%. The mortality ([7]; 10 mg/kg) was 33%, the “maximal tolerated dose (MTD)” value [7] was roughly 5 mg OAK/kg and the “cochleate formation by freeze fracture electron microscopy” value ([8]; DMPE:TOCL (75:25), DPPE:TOCL (75:25) or DMPE:DOPG (75:25)) was “strongly promoted the formation of large cochleates”. The “Pre-formed and fully formed cochleate Length” value ([8]; POPC:TOCL 75:25, 10:1 lipid to polymer) was “(1.8) μm” and the “cochleate formation by freeze fracture electron microscopy” value ([8]; POPC:TOCL (75:25) or POPG:TOCL (75:25)) was “weakly promoted cochleate formation”.
For C12K(NC8K)7NH2 [C12K-7α8], the “antibacterial activity / OAK release in whole blood” value [9] was “maintained rapid bactericidal activity”.
